Data: PubChem BioAssay AID212 (DTP/NCI, 2004)
Several values for one entry are separate records, joined by “and”; a condition that tells them apart may be missing. Equal values may be shown once. Records with an inconclusive call do not appear.

System: BDF1 mice, colon carcinoma 38 sc, T/C %
Assay: NCI In Vivo Anticancer Drug Screen. Data for tumor model Colon Carcinoma 38 (subcutaneous) in B6D2F1 (BDF1) mice
In short: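 Transplantable tumor in mice; compound-treated vs vehicle-dosed controls. Measured survival or tumor size; value = T ÷ C.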

[1] = endpoint: median tumor weight (est.), dose: 25.0 mg/kg/injection, schedule: Q07DX002 (ip), vehicle: Klucel (hydroxypropylcellulose) (HPC), higher = larger tumour
[2] = endpoint: median tumor weight (est.), dose: 50.0 mg/kg/injection, schedule: Q07DX002 (ip), vehicle: Klucel (hydroxypropylcellulose) (HPC), higher = larger tumour
[3] = endpoint: median tumor weight (est.), dose: 100.0 mg/kg/injection, schedule: Q07DX002 (ip), vehicle: Klucel (hydroxypropylcellulose) (HPC), higher = larger tumour

`CC1OC(OC2CC(O)(C(=O)CO)Cc3c(O)c4c(c(O)c32)C(=O)c2ccccc2C4=O)CC(N)C1O` (stereo not given) was tested, and the T/C (endpoint: median survival time, dose: 1.2 mg/kg/injection, schedule: Q07DX003 (iv), vehicle: saline, higher = longer survival) was 108 % of control, the T/C (endpoint: median survival time, dose: 1.9 mg/kg/injection, schedule: Q07DX003 (iv), vehicle: saline, higher = longer survival) was 111 % of control and the T/C (endpoint: median tumor weight (est.), dose: 0.12 mg/kg/injection, schedule: Q07DX002 (ip), vehicle: water, higher = larger tumour) was 120 % of control. For the same compound, the T/C (endpoint: median tumor weight (est.), dose: 0.25 mg/kg/injection, schedule: Q07DX002 (ip), vehicle: saline, higher = larger tumour) was 113 % of control, the T/C (endpoint: median tumor weight (est.), dose: 0.25 mg/kg/injection, schedule: Q07DX002 (ip), vehicle: water, higher = larger tumour) was 90 % of control and the T/C (endpoint: median tumor weight (est.), dose: 0.5 mg/kg/injection, schedule: Q07DX002 (ip), vehicle: saline, higher = larger tumour) was 104 % of control. For the same compound, the T/C (endpoint: median tumor weight (est.), dose: 0.5 mg/kg/injection, schedule: Q07DX002 (ip), vehicle: water, higher = larger tumour) was 78 % of control, the T/C (endpoint: median tumor weight (est.), dose: 1.0 mg/kg/injection, schedule: Q07DX002 (ip), vehicle: saline, higher = larger tumour) was 69 % of control and the T/C (endpoint: median tumor weight (est.), dose: 1.0 mg/kg/injection, schedule: Q07DX002 (ip), vehicle: water, higher = larger tumour) was 23 % of control. The T/C (endpoint: median tumor weight (est.), dose: 2.0 mg/kg/injection, schedule: Q07DX002 (ip), vehicle: saline, higher = larger tumour) was 72 % of control.

For `C=CC(C)NC(=S)NNC(=S)NC` (stereo not given), the T/C (endpoint: median tumor weight (est.), dose: 50.0 mg/kg/injection, schedule: Q07DX002 (ip), vehicle: saline + alcohol, higher = larger tumour) was 97 % of control, the T/C (endpoint: median tumor weight (est.), dose: 100.0 mg/kg/injection, schedule: Q07DX002 (ip), vehicle: saline + alcohol, higher = larger tumour) was 112 % of control and the T/C (endpoint: median tumor weight (est.), dose: 200.0 mg/kg/injection, schedule: Q07DX002 (ip), vehicle: saline + alcohol, higher = larger tumour) was 104 % of control. For the same compound, the T/C (endpoint: median tumor weight (est.), dose: 400.0 mg/kg/injection, schedule: Q07DX002 (ip), vehicle: saline + alcohol, higher = larger tumour) was 86 % of control.

In the case of `COC1=C(C)C(=O)C2=C(C1=O)C(CO)N1C(C#N)C3CC4C(C1C2N1CCOC41)N3C` (stereo not given), the T/C (endpoint: median tumor weight (est.), dose: 0.25 mg/kg/injection, schedule: Q07DX002 (ip), vehicle: saline + alcohol, higher = larger tumour) is reported as 67 % of control, the T/C (endpoint: median tumor weight (est.), dose: 0.5 mg/kg/injection, schedule: Q07DX002 (ip), vehicle: saline + alcohol, higher = larger tumour) is reported as 109 % of control and the T/C (endpoint: median tumor weight (est.), dose: 2.0 mg/kg/injection, schedule: Q07DX002 (ip), vehicle: saline + alcohol, higher = larger tumour) is reported as 153 % of control. The T/C (endpoint: median tumor weight (est.), dose: 4.0 mg/kg/injection, schedule: Q07DX002 (ip), vehicle: saline + alcohol, higher = larger tumour) was 87 % of control.

In the case of `NNC(=O)c1ccncc1`, the T/C (endpoint: median tumor weight (est.), dose: 32.0 mg/kg/injection, schedule: Q07DX002 (ip), vehicle: saline, higher = larger tumour) is reported as 118 % of control, the T/C (endpoint: median tumor weight (est.), dose: 36.0 mg/kg/injection, schedule: Q07DX002 (ip), vehicle: saline, higher = larger tumour) is reported as 77 % of control and 98 % of control and the T/C (endpoint: median tumor weight (est.), dose: 64.0 mg/kg/injection, schedule: Q07DX002 (ip), vehicle: saline, higher = larger tumour) is reported as 104 % of control. For the same compound, the T/C (endpoint: median tumor weight (est.), dose: 72.0 mg/kg/injection, schedule: Q07DX002 (ip), vehicle: saline, higher = larger tumour) was 75 % of control and 95 % of control, the T/C (endpoint: median tumor weight (est.), dose: 128.0 mg/kg/injection, schedule: Q07DX002 (ip), vehicle: saline, higher = larger tumour) was 120 % of control and the T/C (endpoint: median tumor weight (est.), dose: 144.0 mg/kg/injection, schedule: Q07DX002 (ip), vehicle: saline, higher = larger tumour) was 120 % of control.

`O=S(=O)(O)O` was tested, and the T/C [1] was 110 % of control, the T/C [2] was 103 % of control and the T/C [3] was 78 % of control. The T/C (endpoint: median tumor weight (est.), dose: 200.0 mg/kg/injection, schedule: Q07DX002 (ip), vehicle: Klucel (hydroxypropylcellulose) (HPC), higher = larger tumour) was 112 % of control.

With `COc1cc2cc(c1Cl)N(C)C(=O)CC(OC(=O)CC(C)C)C1(C)OC1C(C)C1CC(O)(NC(=O)O1)C(OC)/C=C/C=C(C)C2` (stereo not given) the T/C (endpoint: median tumor weight (est.), dose: 6.2 micrograms/kg/injection, schedule: Q07DX003 (ip), vehicle: saline + alcohol, higher = larger tumour) was 121 % of control and the T/C (endpoint: median tumor weight (est.), dose: 25.0 micrograms/kg/injection, schedule: Q07DX003 (ip), vehicle: saline + alcohol, higher = larger tumour) was 75 % of control.

`C=CC(C)(C)n1cc(C2=C(O)C(=O)C(c3cn(C(C)(C)C=C)c4ccccc34)=C(O)C2=O)c2ccccc21` was tested, and the T/C (endpoint: median tumor weight (est.), dose: 5.0 mg/kg/injection, schedule: Q07DX002 (ip), vehicle: Klucel (hydroxypropylcellulose) (HPC), higher = larger tumour) was 67 % of control and 79 % of control, the T/C (endpoint: median tumor weight (est.), dose: 10.0 mg/kg/injection, schedule: Q07DX002 (ip), vehicle: Klucel (hydroxypropylcellulose) (HPC), higher = larger tumour) was 66 % of control and 82 % of control and the T/C (endpoint: median tumor weight (est.), dose: 20.0 mg/kg/injection, schedule: Q07DX002 (ip), vehicle: DMSO, higher = larger tumour) was 87 % of control. The T/C (endpoint: median tumor weight (est.), dose: 40.0 mg/kg/injection, schedule: Q07DX002 (ip), vehicle: DMSO, higher = larger tumour) was 101 % of control, the T/C (endpoint: median tumor weight (est.), dose: 80.0 mg/kg/injection, schedule: Q07DX002 (ip), vehicle: DMSO, higher = larger tumour) was 41 % of control and the T/C (endpoint: median tumor weight (est.), dose: 80.0 mg/kg/injection, schedule: Q07DX002 (ip), vehicle: Klucel (hydroxypropylcellulose) (HPC), higher = larger tumour) was 79 % of control and 81 % of control. For the same compound, the T/C (endpoint: median tumor weight (est.), dose: 160.0 mg/kg/injection, schedule: Q07DX002 (ip), vehicle: Klucel (hydroxypropylcellulose) (HPC), higher = larger tumour) was 57 % of control and 70 % of control.

With `CCN(CC)c1ccc2cc(-c3nc4ccccc4n3C)c(=O)oc2c1` the T/C (endpoint: median tumor weight (est.), dose: 12.5 mg/kg/injection, schedule: Q07DX002 (ip), vehicle: Klucel (hydroxypropylcellulose) (HPC), higher = larger tumour) was 112 % of control, the T/C [1] was 120 % of control and the T/C [2] was 85 % of control. For the same compound, the T/C [3] was 62 % of control.

For `CC(=O)NCCCCCCNC(C)=O`, the T/C (endpoint: median tumor weight (est.), dose: 100.0 mg/kg/injection, schedule: Q07DX002 (ip), vehicle: saline, higher = larger tumour) was 77 % of control, the T/C (endpoint: median tumor weight (est.), dose: 200.0 mg/kg/injection, schedule: Q07DX002 (ip), vehicle: saline, higher = larger tumour) was 66 % of control and 81 % of control and the T/C (endpoint: median tumor weight (est.), dose: 400.0 mg/kg/injection, schedule: Q07DX002 (ip), vehicle: saline, higher = larger tumour) was 108 % of control. The T/C (endpoint: median tumor weight (est.), dose: 1600.0 mg/kg/injection, schedule: Q07DX002 (ip), vehicle: saline, higher = larger tumour) was 90 % of control and 91 % of control.
